Data published in patent US20240392241A1, “METHOD FOR PRODUCING CELL MASS INCLUDING PITUITARY TISSUE AND CELL MASS” (SUMITOMO CHEMICAL COMPANY, LIMITED, priority 2021, published 2024).

How the values were obtained:
[1] = system: human iPS cells (HC-6 #10 strain); assay: Pituitary organoid differentiation from human iPS cells, phase contrast observation of cell mass (Example 1); type: cell-based; settings: JNK—IN-8 1 μM from day 0
Procedure: Human iPS cells (HC-6 #10 strain, obtained from RIKEN) were cultured under feeder-free conditions according to the method described in Scientific Reports, 4, 3594 (2014). As the feeder-free medium, StemFit medium (manufactured by Ajinomoto Co., Inc.) was used and, as the feeder-free scaffold, Laminin 511-E8 (manufactured by Nippi, Inc.) was used.
As specific maintenance culturing operation, subconfluent human iPS cells (HC-6 #10 strain) were first washed twice with 0.5 mM EDTA/PBS and further treated with 5 mM EDTA/PBS at 37° C. for 10 min. After pipetting, the cells were scraped from the surface of the culture dish and dispersed into single cells. Thereafter, the human iPS cells dispersed into single cells were seeded in a plastic culture dish coated with Laminin 511-E8, and cultured under feeder-free conditions in StemFit medium in the presence of Y-27632 (ROCK inhibiting substance, manufactured by FUJIFILM Wako Pure Chemical Corporation, 10 μM). When a 6-well plate (manufactured by Corning, for cell culturing, culture area 9.5 cm^2) was used as the plastic culture dish, the number of plated cells of the human iPS cells dispersed into single cells was adjusted to 7×10^3. One day after seeding, the entire amount of the medium was changed with StemFit medium free of Y-27632. Thereafter, once in 1-2 days, the entire amount of the medium was changed with StemFit medium free of Y-27632. […]

[2] = system: human iPS cells (201B7 strain); assay: Immunostaining of Pitx1, Lhx3 and E-cadherin in cell aggregates on day 29 (Example 3); type: cell-based; settings: 1 μM from day 0
Procedure: In Example 3, according to step shown in FIG. 3A, a cell population including cells that constitute pituitary tissue was produced. Specifically, human iPS cells (201B7 strain, obtained from Kyoto University) were cultured under feeder-free conditions according to the method described in Scientific Reports, 4, 3594 (2014). As the feeder-free medium, StemFit medium was used and, as the feeder-free scaffold, Laminin 511-E8 was used.
The aforementioned subconfluent human iPS cells were subjected to cell dispersion treatment using TrypLE Select, and further dispersed to single cells by pipetting operation. Thereafter, the aforementioned […] dispersed into single cells were suspended in 100 μl of a serum-free medium at 9000 cells per well of a non-cell-adhesive 96-well culture plate, and suspension cultured under the conditions of 37° C., 5% CO2. […]
The aforementioned cell aggregates on the 29th day after the start of differentiation induction were each fixed with 4% para-formaldehyde, and cryosections were prepared. […] After the primary antibody reaction, detection was performed using a secondary antibody (manufactured by Life Technologies) fluorescence-labeled with Alexa488, 555, and 647. […]

Cc1cc(NC(=O)c2cccc(NC(=O)/C=C/CN(C)C)c2)ccc1Nc1nccc(-c2cccnc2)n1 [JNK—IN-8, (E)-3-(4-(dimethylamino)but-2-enamido)-N-(3-methyl-4-((4-(pyridin-3-yl)pyrimidin-2-yl)amino)phenyl)benzamide]
differentiation efficiency (surface covered with nonneural epithelial/placode-like tissue, unintended cells suppressed) ([1]; day 28, vs no addition): improved
size of the cell mass, smaller in diameter than without addition of JNK inhibitor ([1]; day 28 of suspension culture): about 100 μm
number of cells positive for Pitx1 and Lhx3 vs non-addition control [2]: higher
proportion of the surface of the cell mass covered with E-Cadherin-positive epithelial tissue vs non-addition control [2]: higher
